Experimental data taken from patent US20080200467A1, “SOLUBLE EPOXIDE HYDROLASE INHIBITORS” (Arete Therapeutics, Inc., priority 2006, published 2008).

tested on: soluble epoxide hydrolase (sEH); assay: Fluorescent Assay for Mouse and Human Soluble Epoxide Hydrolase (CMNPC substrate); format: biochemical; conditions: Concentration 500 nM
Text: Fluorescent Assay for Mouse and Human Soluble Epoxide Hydrolase Recombinant mouse sEH (MsEH) and human sEH (HsEH) were produced in a baculovirus expression system as previously reported. Grant et al., J. Biol. Chem., 268:17628-17633 (1993); Beetham et al., Arch. Biochem. Biophys., 305:197-201 (1993). The expressed proteins were purified from cell lysate by affinity chromatography. Wixtrom et al., Anal. Biochem., 169:71-80 (1988). Protein concentration was quantified using the Pierce BCA assay using bovine serum albumin as the calibrating standard. The preparations were at least 97% pure as judged by SDS-PAGE and scanning densitometry. They contained no detectable esterase or glutathione transferase activity which can interfere with the assay. The assay was also evaluated with similar results in crude cell lysates or homogenate of tissues. The IC50s for each inhibitor were according to the following procedure: [drawing 218] […] Jones P. D. et. al.; Analytical Biochemistry 2005; 343: pp. 66-75) Bis/Tris HCl 25 mM pH 7.0 containing 0.1 mg/mL of BSA (buffer […] at 0.25 mM in DMSO. Mother solution of enzyme in buffer A (Mouse sEH at 6 μg/mL and Human sEH at 5 μg/mL). Inhibitor dissolved in DMSO at the appropriate concentration. In a black 96 well plate, fill all the wells with 150 μL of buffer A. Add 2 μL of DMSO in well A2 and A3, and then add 2 μL of inhibitor solution in A1 and A4 through A12. Add 150 μL of buffer A in row A, then mix several time and transfer 150 μL to row B. Repeat this operation up to row H. The 150 μL removed from row H is discarded. Add 20 μL of buffer A in column 1 and 2, then add 20 μL of enzyme solution to column 3 to 12. Incubate the plate for 5 minutes in the plate reader at 30° C. During incubation prepare the working solution of substrate by mixing 3.68 mL of buffer A (4×0.920 mL) with 266 μL (2×133 μL) of substrate solution). At t=0, add 30 μL of working substrate solution with multi-channel pipette labeled “Briggs 303” and start the reading ([S]final: 5 μM). Read with ex: 330 nm (20 nm) and em: 465 nm (20 nm) every 30 second for 10 minutes. The velocities are used to analyze and calculate the IC50s. Tables 4-6 show the activity of compounds when tested with the assay at 50, 500, 5000, 50000, and 500000 nM.

| % Inhibition | Compound |
| --- | --- |
| 82% | O=C(NCC12CC3CC(CC(C3)C1)C2)C(O)Cc1ccc(OCc2ccccc2)cc1 (stereo not shown) [Compound 106, N-Adamantan-1-ylmethyl-3-(4-benzyloxy-phenyl)-2-hydroxy-propionamide] |
| 89% | O=C(Nc1cccc(OCc2ccccc2)c1)C(O)CC12CC3CC(CC(C3)C1)C2 (stereo not shown) [Compound 115, 3-Adamantan-1-yl-N-(3-benzyloxy-phenyl)-2-hydroxy-propionamide] |
| 83% | O=C(NC1CCN(S(=O)(=O)c2cccc(C(F)(F)F)c2)CC1)C(O)CC12CC3CC(CC(C3)C1)C2 (stereo not shown) [Compound 133, 3-Adamantan-1-yl-2-hydroxy-N-(1-(3-(trifluoromethyl)phenylsulfonyl)piperidin-4-yl)propanamide] |
| 78% | COC(=O)CCCCCCCCCCCNC(=O)C(O)CCc1ccc(C(F)(F)F)cc1 (stereo not shown) [Compound 162, Methyl 12-(2-hydroxy-4-(4-(trifluoromethyl)phenyl)butanamido)dodecanoate] |
| 88% | Cc1ccc(S(=O)(=O)N2CCC(CNC(=O)C(O)CC34CC5CC(CC(C5)C3)C4)CC2)cc1 (stereo not shown) [Compound 122, 3-Adamantan-1-yl-2-hydroxy-N-[1-(toluene-4-sulfonyl)-piperidin-4-ylmethyl]-propionamide] |
| 72% | COC(=O)CCCCCCCCCCCNC(=O)C(O)c1ccc(C(F)(F)F)cc1 (stereo not shown) [Compound 158, Methyl 12-(2-hydroxy-2-(4-(trifluoromethyl)phenyl)acetamido)dodecanoate] |

same assay, conditions: Concentration 5000 nM

| % Inhibition | Compound |
| --- | --- |
| 70% | O=C(NCCc1ccc(OCc2ccccc2)cc1)C(O)CCc1ccc(C(F)(F)F)cc1 (stereo not shown) [Compound 139, N-(4-(Benzyloxy)phenethyl)-2-hydroxy-4-(4-(trifluoromethyl)phenyl)butanamide] |
| 91% | O=C(NCCc1ccc(OCc2ccccc2)cc1)C(O)CCC1CCCCC1 (stereo not shown) [Compound 141, N-(4-(Benzyloxy)phenethyl)-4-cyclohexyl-2-hydroxybutanamide] |
| 81% | O=C(O)c1ccc(Oc2ccc(CCNC(=O)C(O)CCC34CC5CC(CC(C5)C3)C4)cc2)cc1 (stereo not shown) [Compound 154, 4-(4-(2-(4-Adamantan-1-yl-2-hydroxybutanamido)ethyl)phenoxy)benzoic acid] |
| 99% | O=C(Nc1cccc(OCc2ccccc2)c1)C(O)c1ccc(C(F)(F)F)cc1 (stereo not shown) [Compound 105, N-(3-Benzyloxy-phenyl)-2-hydroxy-2-(4-trifluoromethyl-phenyl)-acetamide] |
| 86% | O=C(O)CCCCCCCCCCCNC(=O)C(O)CCC12CC3CC(CC(C3)C1)C2 (stereo not shown) [Compound 165, 12-(4-Adamantan-1-yl-2-hydroxybutanamido)dodecanoic acid] |
| 84% | Cc1ccc(S(=O)(=O)N2CCC(CNC(=O)C(O)C34CC5CC(CC(C5)C3)C4)CC2)cc1 (stereo not shown) [Compound 127, 2-Adamantan-1-yl-2-hydroxy-N-[1-(toluene-4-sulfonyl)-piperidin-4-ylmethyl]-acetamide] |
| 78% | COc1ccc(C(=O)C(=O)NCC23CC4CC(CC(C4)C2)C3)cc1 [Compound 22] |
| 89% | O=C(Nc1ccc(OCc2ccccc2)cc1)C(O)CCc1ccc(C(F)(F)F)cc1 (stereo not shown) [Compound 130] |
| 89% | O=C(O)CCCCCCCCCCCNC(=O)C(O)CCc1ccc(C(F)(F)F)cc1 (stereo not shown) [Compound 163, 12-(2-Hydroxy-4-(4-(trifluoromethyl)phenyl)butanamido)dodecanoicacid] |
| 87% | O=C(NCCc1ccc(OCc2ccccc2)cc1)C(O)C12CC3CC(CC(C3)C1)C2 (stereo not shown) [Compound 150, N-(4-(Benzyloxy)phenethyl)-2-adamantyl-2-hydroxyacetamide] |
| 93% | O=C(Nc1ccc(OCc2ccccc2)cc1)C(=O)C12CC3CC(CC(C3)C1)C2 [Compound 20] |
| 82% | Cc1ccc(S(=O)(=O)N2CCC(NC(=O)C(O)C3CCCCC3)CC2)cc1 (stereo not shown) [Compound 137, 2-Cyclohexyl-2-hydroxy-N-(1-tosylpiperidin-4-yl)acetamide] |
| 90% | O=C(NCCc1ccc(Oc2ccccc2)cc1)C(O)CCC12CC3CC(CC(C3)C1)C2 (stereo not shown) [Compound 151, 4-Adamantan-1-yl-2-hydroxy-N-(4-phenoxyphenethyl)butanamide] |
| 98% | O=C(NC1CCN(S(=O)(=O)c2ccc(Cl)cc2)CC1)C(O)CCC12CC3CC(CC(C3)C1)C2 (stereo not shown) [Compound 152, N-(1-(4-Chlorophenylsulfonyl)piperidin-4-yl)-4-adamantyl-2-hydroxybutanamide] |
| 87% | O=C(NC12CC3CC(CC(C3)C1)C2)C(O)c1cccc(OCc2ccccc2)c1 (stereo not shown) [Compound 103, N-Adamantan-1-yl-2-(3-benzyloxy-phenyl)-2-hydroxy-acetamide] |
| 93% | Cc1ccc(S(=O)(=O)N2CCC(NC(=O)C(=O)C34CC5CC(CC(C5)C3)C4)CC2)cc1 [Compound 18, 2-Adamantan-1-yl-2-oxo-N-[1-(toluene-4-sulfonyl)-piperidin-4-yl]-acetamide] |
| 83% | O=C(NCc1ccc(OCc2ccccc2)cc1)C(O)C12CC3CC(CC(C3)C1)C2 (stereo not shown) [Compound 134, N-(4-(Benzyloxy)benzyl)-2-adamantan-1-yl-2-hydroxyacetamide] |
| 79% | CNS(=O)(=O)c1ccc(CCNC(=O)C(O)CCC23CC4CC(CC(C4)C2)C3)cc1 (stereo not shown) [Compound 156, 4-Adamantan-1-yl-2-hydroxy-N-(4-(N-methylsulfamoyl)phenethyl)butanamide] |
| 78% | O=C(Nc1cccc(OCc2ccccc2)c1)C(O)CC1CCCCC1 (stereo not shown) [Compound 126, N-(3-Benzyloxy-phenyl)-3-cyclohexyl-2-hydroxy-propionamide] |
| 81% | CCCC(=O)N1CCC(NC(=O)C(O)C2CCCCC2)CC1 (stereo not shown) [Compound 116, N-(1-Butyryl-piperidin-4-yl)-2-cyclohexyl-2-hydroxy-acetamide] |
| 98% | O=C(NC1CCN(S(=O)(=O)c2cccc(C(F)(F)F)c2)CC1)C(O)C12CC3CC(CC(C3)C1)C2 (stereo not shown) [Compound 123, 2-Adamantan-1-yl-2-hydroxy-N-[1-(3-trifluoromethyl-benzenesulfonyl)-piperidin-4-yl]-acetamide] |

same assay, conditions: Concentration 50000 nM

| % Inhibition | Compound |
| --- | --- |
| 93% | O=C(CCc1ccc(C(F)(F)F)cc1)C(=O)Nc1ccc(OCc2ccccc2)cc1 [Compound 23] |
| 82% | O=C(Nc1ccc(C(=O)NCCN2CCOCC2)cc1)C(=O)c1ccc(C(F)(F)F)cc1 [Compound 2, N-(2-Morpholin-4-yl-ethyl)-4-[2-oxo-2-(4-trifluoromethyl-phenyl)-acetylamino]-benzamide] |
| 77% | CCCC(=O)N1CCC(NC(=O)C(=O)c2ccc(C(F)(F)F)cc2)CC1 [Compound 14, N-(1-Butyryl-piperidin-4-yl)-2-oxo-2-(4-trifluoromethyl-phenyl)-acetamide] |
| 63% | O=C(NCCN1CCOCC1)c1ccc(NC(=O)C(O)c2ccc(C(F)(F)F)cc2)cc1 (stereo not shown) [Compound 102, 4-[2-Hydroxy-2-(4-trifluoromethyl-phenyl)-acetylamino]-N-(2-morpholin-4-yl-ethyl)-benzamide] |
| 80% | O=C(Nc1ccc(-n2ccnc2)cc1)C(O)C1CCCCC1 (stereo not shown) [Compound 112, 2-Cyclohexyl-2-hydroxy-N-(4-imidazol-1-yl-phenyl)-acetamide] |
| 72% | Cc1ccc(S(=O)(=O)N2CCC(NC(=O)C(=O)c3ccc(C(F)(F)F)cc3)CC2)cc1 [Compound 9, 2-Oxo-N-[1-(toluene-4-sulfonyl)-piperidin-4-yl]-2-(4-trifluoromethyl-phenyl)-acetamide] |
| 80% | O=C(Nc1ccc(-n2ccnc2)cc1)C(=O)C1CCCCC1 [Compound 11, 2-Cyclohexyl-N-(4-imidazol-1-yl-phenyl)-2-oxo-acetamide] |
| 96% | O=C(NC12CC3CC(CC(C3)C1)C2)C(=O)c1cccc(OCc2ccccc2)c1 [Compound 3, N-Adamantan-1-yl-2-(3-benzyloxy-phenyl)-2-oxo-acetamide] |
| 62% | CCCC(=O)N1CCC(NC(=O)C(=O)C2CCCCC2)CC1 [Compound 16, N-(1-Butyryl-piperidin-4-yl)-2-cyclohexyl-2-oxo-acetamide] |

same assay, conditions: Concentration 500000 nM

| % Inhibition | Compound |
| --- | --- |
| 80% | O=C(Nc1ccc(-n2ccnc2)cc1)C(O)c1ccc(C(F)(F)F)cc1 (stereo not shown) [Compound 109, 2-Hydroxy-N-(4-imidazol-1-yl-phenyl)-2-(4-trifluoromethyl-phenyl)-acetamide] |
